Measured values reported in ChEMBL document CHEMBL5727776, “Heteroaromatic carboxamide derivatives as plasma kallikrein inhibitors” (2020).

Target: Plasma kallikrein (Homo sapiens, UniProt P03952)
Test: Measurements were performed in a kinetic interval every 2nd minute for 16 min using a Spectramax M5 (Molecular Devices) with the following settings of the wavelength excitation of 350 nm and wavelength emission of 450 nm.

Chain of Plasma kallikrein (P03952 20-390 limits assumed): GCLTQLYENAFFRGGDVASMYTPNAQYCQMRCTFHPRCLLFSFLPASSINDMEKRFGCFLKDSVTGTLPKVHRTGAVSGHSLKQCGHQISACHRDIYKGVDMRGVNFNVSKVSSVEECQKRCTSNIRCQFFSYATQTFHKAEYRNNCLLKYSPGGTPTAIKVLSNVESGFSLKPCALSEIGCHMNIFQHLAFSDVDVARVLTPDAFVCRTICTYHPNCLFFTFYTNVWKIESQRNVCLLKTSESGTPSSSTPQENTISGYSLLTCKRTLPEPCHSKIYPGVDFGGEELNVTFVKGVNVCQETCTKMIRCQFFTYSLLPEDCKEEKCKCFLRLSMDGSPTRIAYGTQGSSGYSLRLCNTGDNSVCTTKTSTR
Chain of Plasma kallikrein (P03952 391-638 limits assumed): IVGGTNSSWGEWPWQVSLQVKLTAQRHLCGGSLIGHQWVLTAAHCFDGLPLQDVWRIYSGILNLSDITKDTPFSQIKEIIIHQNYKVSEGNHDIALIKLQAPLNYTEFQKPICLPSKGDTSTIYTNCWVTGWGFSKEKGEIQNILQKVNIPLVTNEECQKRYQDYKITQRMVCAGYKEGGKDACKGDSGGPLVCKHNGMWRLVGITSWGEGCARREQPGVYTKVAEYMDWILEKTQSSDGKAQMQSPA

| Ki | SMILES |
| --- | --- |
| 0.4 nM | Cc1nc(N2CC3(CC3)C2)ccc1Cn1cc(C(=O)N[C@@H]2CCc3c(C)n[nH]c32)cn1 |
| 0.1 nM | Cc1nc(N2CC3C(C2)C3(F)F)ccc1Cn1cc(C(=O)N[C@@H]2CCc3c(C)n[nH]c32)c(C)n1 (some centres not stated) |
